Data taken from patent US9938261B2, “Heterocyclic compounds and methods of use thereof” (AMBIT BIOSCIENCES CORPORATION, priority 2011, dated 2018).
Like-named read-outs stand apart in the source and are kept apart here.

Columns and labels:
FLT3 = biological target: T1, FLT3 (Homo sapiens, UniProt P36888); assay: Competition binding assay, FLT3 Kd
T1 construct: made in house
T1 sequence (P36888 27-993): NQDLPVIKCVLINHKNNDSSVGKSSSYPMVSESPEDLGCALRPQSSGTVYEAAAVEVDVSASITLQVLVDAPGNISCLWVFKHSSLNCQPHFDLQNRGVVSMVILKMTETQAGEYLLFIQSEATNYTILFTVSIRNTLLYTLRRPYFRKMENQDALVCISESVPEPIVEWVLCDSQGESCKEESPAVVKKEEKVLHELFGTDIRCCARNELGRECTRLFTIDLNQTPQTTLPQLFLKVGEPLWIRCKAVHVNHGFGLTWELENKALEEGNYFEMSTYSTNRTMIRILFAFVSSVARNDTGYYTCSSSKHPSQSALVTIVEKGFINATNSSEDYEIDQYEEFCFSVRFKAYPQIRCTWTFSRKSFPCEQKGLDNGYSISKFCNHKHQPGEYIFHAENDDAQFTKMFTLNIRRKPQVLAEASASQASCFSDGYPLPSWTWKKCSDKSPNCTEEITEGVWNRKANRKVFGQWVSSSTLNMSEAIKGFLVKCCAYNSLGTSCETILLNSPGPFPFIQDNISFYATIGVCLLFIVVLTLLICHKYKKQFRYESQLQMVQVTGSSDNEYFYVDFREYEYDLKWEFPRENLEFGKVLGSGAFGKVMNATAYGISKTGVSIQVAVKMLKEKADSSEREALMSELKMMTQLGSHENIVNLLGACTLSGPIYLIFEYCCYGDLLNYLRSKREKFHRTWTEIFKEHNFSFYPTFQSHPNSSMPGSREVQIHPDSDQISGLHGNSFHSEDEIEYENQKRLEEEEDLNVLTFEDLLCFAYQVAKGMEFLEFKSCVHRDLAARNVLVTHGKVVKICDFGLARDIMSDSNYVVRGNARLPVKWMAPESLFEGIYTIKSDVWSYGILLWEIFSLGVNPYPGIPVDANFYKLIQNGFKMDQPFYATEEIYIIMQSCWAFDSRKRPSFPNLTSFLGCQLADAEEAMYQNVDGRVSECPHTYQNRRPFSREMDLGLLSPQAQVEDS
Procedure, shortened: (§1)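 Kinases as T7-phage fusions or HEK-293-expressed DNA-tagged constructs competed against immobilized biotinylated ligand on streptavidin beads, 1 h at room temperature in binding buffer. Bound kinase eluted and quantified by qPCR; Kd from eleven-point threefold dilution series.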

KIT = biological target: T2, KIT (Homo sapiens, UniProt P10721); assay: Competition binding assay, KIT Kd
T2 construct: made in house
Procedure, shortened: as §1

PDGFRβ = biological target: T3, PDGFRβ (Homo sapiens, UniProt P09619); assay: Competition binding assay, PDGFRβ Kd
T3 construct: made in house
Procedure, shortened: as §1

CSF1R = CSF1R (Homo sapiens, UniProt P07333); assay: HEK293 CSF1R phosphorylation MSD assay; type: cell-based; design: expressed in transfected cells; host or cells: HEK293; conditions: read-out: HEK293 pCSF1R M-CSF MSD:IC50
Procedure, shortened: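 Ligand-induced CSF1R autophosphorylation was measured by MSD sandwich assay: CSF1R-FKBP from lysates captured via FK506, anti-phosphotyrosine readout. Cells were exposed to compound for 2 h (9-point, half-log, 0.5% DMSO) before 5 min 50 ng/mL M-CSF. Reported IC50 is the mean of duplicate-plate IC50s relative to DMSO control.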

[1] = 2 h compound, human M-CSF 50 ng/mL for 5 min
[2] = HEK293 cells, M-CSF stimulated CSF1R phosphorylation, MSD

T2 sequence (P10721 26-976): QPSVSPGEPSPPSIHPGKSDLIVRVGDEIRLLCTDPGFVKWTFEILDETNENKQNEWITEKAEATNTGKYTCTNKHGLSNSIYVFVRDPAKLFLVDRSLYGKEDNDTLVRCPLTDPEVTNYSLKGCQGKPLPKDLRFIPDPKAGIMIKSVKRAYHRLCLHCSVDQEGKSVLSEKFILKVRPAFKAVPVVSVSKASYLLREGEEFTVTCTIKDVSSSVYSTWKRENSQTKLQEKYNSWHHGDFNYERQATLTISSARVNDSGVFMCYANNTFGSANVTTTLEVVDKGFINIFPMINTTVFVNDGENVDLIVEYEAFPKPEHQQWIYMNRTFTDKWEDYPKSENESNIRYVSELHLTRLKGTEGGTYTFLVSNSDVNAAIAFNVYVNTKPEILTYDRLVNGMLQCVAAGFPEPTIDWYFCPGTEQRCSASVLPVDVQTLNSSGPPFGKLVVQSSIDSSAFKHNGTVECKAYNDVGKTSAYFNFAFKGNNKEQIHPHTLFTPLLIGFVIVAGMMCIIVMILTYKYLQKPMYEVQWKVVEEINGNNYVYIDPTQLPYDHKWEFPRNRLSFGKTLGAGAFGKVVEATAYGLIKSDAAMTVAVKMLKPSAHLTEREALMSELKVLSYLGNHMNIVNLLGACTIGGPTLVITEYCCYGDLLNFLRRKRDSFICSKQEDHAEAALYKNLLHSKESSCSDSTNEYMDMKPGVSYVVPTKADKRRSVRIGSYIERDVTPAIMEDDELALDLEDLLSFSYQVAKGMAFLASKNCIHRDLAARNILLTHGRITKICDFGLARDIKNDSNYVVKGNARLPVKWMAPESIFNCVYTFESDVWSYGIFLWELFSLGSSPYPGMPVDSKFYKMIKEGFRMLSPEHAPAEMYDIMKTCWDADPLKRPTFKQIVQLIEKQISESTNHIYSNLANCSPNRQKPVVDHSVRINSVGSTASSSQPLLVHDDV
CSF1R, sequence (P07333 20-972): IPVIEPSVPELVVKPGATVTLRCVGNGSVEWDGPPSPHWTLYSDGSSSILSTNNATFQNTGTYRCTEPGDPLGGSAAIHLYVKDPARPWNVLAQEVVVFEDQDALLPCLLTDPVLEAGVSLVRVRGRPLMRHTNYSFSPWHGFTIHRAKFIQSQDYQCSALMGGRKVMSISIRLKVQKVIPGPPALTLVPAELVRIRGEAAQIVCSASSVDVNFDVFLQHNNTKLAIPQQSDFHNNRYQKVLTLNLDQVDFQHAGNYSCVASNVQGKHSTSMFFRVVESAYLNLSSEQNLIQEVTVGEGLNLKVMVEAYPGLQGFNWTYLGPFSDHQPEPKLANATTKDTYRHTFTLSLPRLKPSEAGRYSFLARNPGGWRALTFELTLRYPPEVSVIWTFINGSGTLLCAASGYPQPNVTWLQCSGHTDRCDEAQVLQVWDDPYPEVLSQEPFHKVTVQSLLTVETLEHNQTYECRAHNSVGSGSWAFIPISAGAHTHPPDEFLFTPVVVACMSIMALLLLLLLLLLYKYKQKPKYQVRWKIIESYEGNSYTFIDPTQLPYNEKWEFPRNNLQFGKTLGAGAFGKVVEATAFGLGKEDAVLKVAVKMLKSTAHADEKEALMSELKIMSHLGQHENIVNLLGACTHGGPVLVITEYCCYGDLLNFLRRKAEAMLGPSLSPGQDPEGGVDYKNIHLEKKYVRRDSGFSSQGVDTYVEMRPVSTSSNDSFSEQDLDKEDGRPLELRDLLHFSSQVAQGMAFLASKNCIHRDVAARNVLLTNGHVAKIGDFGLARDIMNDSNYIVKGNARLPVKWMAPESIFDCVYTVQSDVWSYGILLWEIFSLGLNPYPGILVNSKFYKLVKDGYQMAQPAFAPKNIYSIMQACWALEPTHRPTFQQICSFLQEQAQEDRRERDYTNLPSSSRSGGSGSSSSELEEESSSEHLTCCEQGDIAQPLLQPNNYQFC
T3 sequence (P09619 33-1106): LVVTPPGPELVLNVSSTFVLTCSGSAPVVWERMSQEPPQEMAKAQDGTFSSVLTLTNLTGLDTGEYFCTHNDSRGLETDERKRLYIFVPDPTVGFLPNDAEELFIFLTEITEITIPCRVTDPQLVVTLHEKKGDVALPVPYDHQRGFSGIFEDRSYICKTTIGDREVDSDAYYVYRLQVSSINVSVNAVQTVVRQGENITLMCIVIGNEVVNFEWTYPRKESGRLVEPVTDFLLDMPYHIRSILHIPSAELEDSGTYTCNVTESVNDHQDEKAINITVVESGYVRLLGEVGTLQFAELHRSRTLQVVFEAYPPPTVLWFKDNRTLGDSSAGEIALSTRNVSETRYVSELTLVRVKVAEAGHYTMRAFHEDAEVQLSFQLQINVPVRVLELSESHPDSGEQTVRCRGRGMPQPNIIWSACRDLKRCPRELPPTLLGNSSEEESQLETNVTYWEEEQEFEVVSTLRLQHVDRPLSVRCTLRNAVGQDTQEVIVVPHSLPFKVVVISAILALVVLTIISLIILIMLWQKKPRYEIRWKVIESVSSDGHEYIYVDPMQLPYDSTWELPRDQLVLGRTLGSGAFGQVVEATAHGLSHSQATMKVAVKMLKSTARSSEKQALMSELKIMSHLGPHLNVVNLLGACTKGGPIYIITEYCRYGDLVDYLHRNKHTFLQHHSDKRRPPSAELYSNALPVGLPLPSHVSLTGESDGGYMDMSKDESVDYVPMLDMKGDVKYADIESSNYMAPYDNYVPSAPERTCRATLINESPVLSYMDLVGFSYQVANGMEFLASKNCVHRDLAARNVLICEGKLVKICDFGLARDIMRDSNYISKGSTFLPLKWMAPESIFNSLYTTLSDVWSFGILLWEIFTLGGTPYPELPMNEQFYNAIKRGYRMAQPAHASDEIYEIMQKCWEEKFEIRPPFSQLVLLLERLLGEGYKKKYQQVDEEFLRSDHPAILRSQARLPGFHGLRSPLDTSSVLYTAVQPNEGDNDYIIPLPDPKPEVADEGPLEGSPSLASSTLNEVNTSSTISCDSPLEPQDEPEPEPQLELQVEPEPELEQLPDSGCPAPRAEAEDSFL

SMILES	Kd (FLT3) [nM]	Kd (KIT) [nM]	Kd (PDGFRβ) [nM]	IC50 (CSF1R; [1]) [nM]	Kd (FLT3; competition binding) [nM]	Kd (KIT; competition binding) [nM]	Kd (PDGFRβ; competition binding) [nM]	IC50 (CSF1R; [2]) [nM]
CSCc1cnc2c(c1)ncn2Cc1ccc2nc(N[C@@H]3CCCC[C@H]3O)sc2c1 [Example 86, (1R,2R)-2-((6-((6-((methylthio)methyl)-3H-imidazo[4,5-b]pyridin-3-yl)methyl)benzo[d]thiazol-2-yl)amino)cyclohexanol]	200 to 1000	≤ 100	≤ 50	≤ 50				
N#Cc1ccc2ncn(Cc3ccc4nc(N[C@@H]5CCCC[C@H]5O)sc4c3)c2n1 [Example 87, 3-((2-(((1R,2R)-2-hydroxycyclohexyl)amino)benzo[d]thiazol-6-yl)methyl)-3H-imidazo[4,5-b]pyridine-5-carbonitrile]	200 to 1000	≤ 100	≤ 50	≤ 50				
C#Cc1cnc2c(c1)ncn2Cc1ccc2nc(N[C@@H]3CCCC[C@H]3O)sc2c1 [Example 96, (1R,2R)-2-((6-((6-ethynyl-3H-imidazo[4,5-b]pyridin-3-yl)methyl)benzo[d]thiazol-2-yl)amino)cyclohexanol]	≤ 200	≤ 100	≤ 50	≤ 50				
O[C@@H]1CCCC[C@H]1Nc1nc2ccc(Cn3cnc4cc(N5CCOCC5)cnc43)cc2s1 [Example 97, (1R,2R)-2-((6-((6-morpholino-3H-imidazo[4,5-b]pyridin-3-yl)methyl)benzo[d]thiazol-2-yl)amino)cyclohexanol]	200 to 1000	≤ 100	≤ 50	≤ 50				
C=Cc1cnc2c(c1)ncn2Cc1ccc2nc(N[C@@H]3CCCC[C@H]3O)sc2c1 [Example 98, (1R,2R)-2-((6-((6-vinyl-3H-imidazo[4,5-b]pyridin-3-yl)methyl)benzo[d]thiazol-2-yl)amino)cyclohexanol]	200 to 1000	≤ 100	≤ 50	≤ 50				
CC(=O)NCc1cnc2c(c1)ncn2Cc1ccc2nc(N[C@@H]3CCCC[C@H]3O)sc2c1 [Example 99, N-((3-((2-(((1R,2R)-2-hydroxycyclohexyl)amino)benzo[d]thiazol-6-yl)methyl)-3H-imidazo[4,5-b]pyridin-6-yl)methyl)acetamide]	1000 to 5000	> 2000	500 to 2000	200 to 500				
O[C@@H]1CCCC[C@H]1Nc1nc2ccc(Cn3cnc4cc(Br)ccc43)cc2s1 [Example 100, (1R,2R)-2-((6-((5-bromo-1H-benzo[d]imidazol-1-yl)methyl)benzo[d]thiazol-2-yl)amino)cyclohexanol]	1000 to 5000	100 to 500	50 to 500	50 to 200				
CC(=O)Nc1cn(Cc2ccc3nc(N[C@@H]4CCCC[C@H]4O)sc3c2)cn1 [Example 101, N-(1-((2-(((1R,2R)-2-hydroxycyclohexyl)amino)benzo[d]thiazol-6-yl)methyl)-1H-imidazol-4-yl)acetamide]	200 to 1000	500 to 2000	50 to 500	50 to 200				
CCc1cnc2c(c1)ncn2Cc1ccc2nc(N[C@@H]3CCCC[C@H]3O)sc2c1 [Example 102, (1R,2R)-2-((6-((6-ethyl-3H-imidazo[4,5-b]pyridin-3-yl)methyl)benzo[d]thiazol-2-yl)amino)cyclohexanol]	200 to 1000	≤ 100	≤ 50	≤ 50				
CS(=O)(=O)c1ccc2ncn(Cc3ccc4nc(N[C@@H]5CCCC[C@H]5O)sc4c3)c2n1 [Example 106, (1R,2R)-2-((6-((5-(methylsulfonyl)-3H-imidazo[4,5-b]pyridin-3-yl)methyl)benzo[d]thiazol-2-yl)amino)cyclohexanol]					200 to 1000	500 to 2000	500 to 2000	> 500
O[C@@H]1CCCC[C@H]1Nc1nc2ccc(Cn3cnc4ccc(Br)cc43)cc2s1 [Example 107, (1R,2R)-2-((6-((6-bromo-1H-benzo[d]imidazol-1-yl)methyl)benzo[d]thiazol-2-yl)amino)cyclohexanol]					1000 to 5000	100 to 500	50 to 500	50 to 200
N#CCOc1ccc2c(c1)ncn2Cc1ccc2nc(N[C@@H]3CCCC[C@H]3O)sc2c1 [Example 196, 2-((1-((2-(((1R,2R)-2-hydroxycyclohexyl)amino)benzo[d]thiazol-6-yl)methyl)-1H-benzo[d]imidazol-5-yl)oxy)acetonitrile]					200 to 1000	100 to 500	50 to 500	≤ 50
Fc1cnc2c(c1)ncn2Cc1ccc2nc(N[C@@H]3CCCC[C@H]3Cl)sc2c1 [Example 198, N-((1R,2R)-2-chlorocyclohexyl)-6-((6-fluoro-3H-imidazo[4,5-b]pyridin-3-yl)methyl)benzo[d]thiazol-2-amine]					1000 to 5000	100 to 500	≤ 50	200 to 500
OC1CCN(c2ccn3c(Cc4ccc5nc(N[C@@H]6CCCC[C@H]6O)sc5c4)cnc3c2)CC1 [Example 199, 1-(3-((2-(((1R,2R)-2-hydroxycyclohexyl)amino)benzo[d]thiazol-6-yl)methyl)imidazo[1,2-a]pyridin-7-yl)piperidin-4-ol]					> 5000	> 2000	> 2000	200 to 500
CC(=O)c1ccn2c(Cc3ccc4nc(N[C@@H]5CCCC[C@H]5O)sc4c3)cnc2c1 [Example 200, 1-(3-((2-(((1R,2R)-2-hydroxycyclohexyl)amino)benzo[d]thiazol-6-yl)methyl)imidazo[1,2-a]pyridin-7-yl)ethanone]					> 5000	500 to 2000	50 to 500	50 to 200
CC(O)c1ccn2c(Cc3ccc4nc(N[C@@H]5CCCC[C@H]5O)sc4c3)cnc2c1 (stereo partly drawn) [Example 201, (1R,2R)-2-((6-((7-(1-hydroxyethyl)imidazo[1,2-a]pyridin-3-yl)methyl)benzo[d]thiazol-2-yl)amino)cyclohexanol]					1000 to 5000	500 to 2000	500 to 2000	200 to 500
CC(=NO)c1ccn2c(Cc3ccc4nc(N[C@@H]5CCCC[C@H]5O)sc4c3)cnc2c1 [Example 202, 1-(3-((2-(((1R,2R)-2-hydroxycyclohexyl)amino)benzo[d]thiazol-6-yl)methyl)imidazo[1,2-a]pyridin-7-yl)ethanone oxime]					1000 to 5000	100 to 500	50 to 500	50 to 200
O[C@@H]1CCCC[C@H]1Nc1nc2ccc(Cn3cnc4cc(Br)cc(F)c43)cc2s1 [Example 203, (1R,2R)-2-((6-((5-bromo-7-fluoro-1H-benzo[d]imidazol-1-yl)methyl)benzo[d]thiazol-2-yl)amino)cyclohexanol]					200 to 1000	≤ 100	50 to 500	50 to 200
CON=C(C)c1ccn2c(Cc3ccc4nc(N[C@@H]5CCCC[C@H]5O)sc4c3)cnc2c1 [Example 204, 1-(3-((2-(((1R,2R)-2-hydroxycyclohexyl)amino)benzo[d]thiazol-6-yl)methyl)imidazo[1,2-a]pyridin-7-yl)ethanone O-methyl oxime]					1000 to 5000	100 to 500	50 to 500	50 to 200
O[C@@H]1CCCC[C@H]1Nc1nc2ccc(Cc3cnc4[nH]c5ccccc5n34)cc2s1 [Example 205, (1R,2R)-2-((6-((9H-benzo[d]imidazo[1,2-a]imidazol-3-yl)methyl)benzo[d]thiazol-2-yl)amino)cyclohexanol]					200 to 1000	500 to 2000	50 to 500	> 500
